Assay results from US12447153B2, “HER2 mutation inhibitors” (Array BioPharma Inc., priority 2021, dated 2025).

What was measured:
MDR1 (P-gp) = MDR1 (P-gp) (Homo sapiens (Human), UniProt P08183); assay: in vitro; conditions: pig, LLC-PK1
EGFR = EGFR (Homo sapiens (Human), UniProt P00533); assay: ErbB Enzyme Assay (HTRF KinEASE-TK), Assay 3; type: biochemical
ErbB2 WT = ErbB2 WT (Homo sapiens (Human), UniProt P04626); assay: ErbB Enzyme Assay (HTRF KinEASE-TK), Assay 2; type: biochemical
BCRP = BCRP (Homo sapiens (Human), UniProt Q9UNQ0); assay: BCRP MDCKII efflux assay (Assay 7); type: in vitro ADME; conditions: dog; efflux ratio Papp(B-A)/Papp(A-B), BCRP MDCKII cells; read-out: Assay 7 Pe Ratio
Description: Assay conditions included with and without the BCRP-specific inhibitor, KO143, at a concentration of 0.3 μM to ascertain the contribution of BCRP to the efflux value of the test compound.
Final organic concentration in the assay was 1%.

[1] = biological target: ErbB2 with Exon 20 YVMA insertion (HER2-YVMA) (Homo sapiens (Human), UniProt P04626, INS775YVMA); assay: Cellular Phosphorylation Assay, Assay 4 (constitutive ErbB2 phosphorylation, NIH 3T3 cells); type: cell-based
ErbB2 with Exon 20 YVMA insertion (HER2-YVMA), sequence (P04626 other isoform, or with tags, fused parts or gaps ins YVMA behind 775): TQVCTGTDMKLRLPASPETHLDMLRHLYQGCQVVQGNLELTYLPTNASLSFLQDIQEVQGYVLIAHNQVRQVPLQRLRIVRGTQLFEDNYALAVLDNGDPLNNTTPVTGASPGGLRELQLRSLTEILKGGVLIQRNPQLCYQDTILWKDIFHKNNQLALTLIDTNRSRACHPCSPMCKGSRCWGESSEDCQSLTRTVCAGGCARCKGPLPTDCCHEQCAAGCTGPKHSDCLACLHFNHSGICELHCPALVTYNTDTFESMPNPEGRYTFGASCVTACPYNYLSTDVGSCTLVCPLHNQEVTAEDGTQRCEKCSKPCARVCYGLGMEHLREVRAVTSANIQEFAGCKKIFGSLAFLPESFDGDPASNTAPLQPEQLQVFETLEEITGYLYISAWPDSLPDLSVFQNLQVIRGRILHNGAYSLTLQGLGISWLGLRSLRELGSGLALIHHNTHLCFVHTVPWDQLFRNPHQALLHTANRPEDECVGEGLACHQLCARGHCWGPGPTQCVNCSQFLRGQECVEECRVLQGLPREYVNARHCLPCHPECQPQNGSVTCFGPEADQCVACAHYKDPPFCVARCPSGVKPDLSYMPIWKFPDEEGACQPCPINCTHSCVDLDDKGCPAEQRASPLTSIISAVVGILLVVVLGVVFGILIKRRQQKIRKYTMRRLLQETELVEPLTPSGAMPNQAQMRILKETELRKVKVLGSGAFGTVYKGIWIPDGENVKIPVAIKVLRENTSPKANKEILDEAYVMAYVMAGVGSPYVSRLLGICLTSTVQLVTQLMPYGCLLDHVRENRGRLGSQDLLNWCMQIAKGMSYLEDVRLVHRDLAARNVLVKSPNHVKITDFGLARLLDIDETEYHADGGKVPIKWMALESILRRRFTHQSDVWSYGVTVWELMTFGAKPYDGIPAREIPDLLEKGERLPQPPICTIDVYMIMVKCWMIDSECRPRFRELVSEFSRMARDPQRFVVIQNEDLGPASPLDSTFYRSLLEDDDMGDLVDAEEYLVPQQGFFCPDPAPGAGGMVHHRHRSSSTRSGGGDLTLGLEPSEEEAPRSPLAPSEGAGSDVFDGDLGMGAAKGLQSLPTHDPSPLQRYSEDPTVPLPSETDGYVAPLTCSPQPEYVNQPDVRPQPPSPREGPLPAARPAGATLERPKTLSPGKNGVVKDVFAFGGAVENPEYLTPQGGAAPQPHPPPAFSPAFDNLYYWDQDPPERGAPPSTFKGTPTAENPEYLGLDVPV

EGFR wild type (EGFR WT) = EGFR wild type (EGFR WT) (Homo sapiens (Human), UniProt P00533); assay: Cellular Phosphorylation Assay, Assay 5 (EGF-stimulated EGFR phosphorylation, NIH 3T3 cells); type: cell-based
EGFR wild type (EGFR WT), sequence (P00533 25-1210): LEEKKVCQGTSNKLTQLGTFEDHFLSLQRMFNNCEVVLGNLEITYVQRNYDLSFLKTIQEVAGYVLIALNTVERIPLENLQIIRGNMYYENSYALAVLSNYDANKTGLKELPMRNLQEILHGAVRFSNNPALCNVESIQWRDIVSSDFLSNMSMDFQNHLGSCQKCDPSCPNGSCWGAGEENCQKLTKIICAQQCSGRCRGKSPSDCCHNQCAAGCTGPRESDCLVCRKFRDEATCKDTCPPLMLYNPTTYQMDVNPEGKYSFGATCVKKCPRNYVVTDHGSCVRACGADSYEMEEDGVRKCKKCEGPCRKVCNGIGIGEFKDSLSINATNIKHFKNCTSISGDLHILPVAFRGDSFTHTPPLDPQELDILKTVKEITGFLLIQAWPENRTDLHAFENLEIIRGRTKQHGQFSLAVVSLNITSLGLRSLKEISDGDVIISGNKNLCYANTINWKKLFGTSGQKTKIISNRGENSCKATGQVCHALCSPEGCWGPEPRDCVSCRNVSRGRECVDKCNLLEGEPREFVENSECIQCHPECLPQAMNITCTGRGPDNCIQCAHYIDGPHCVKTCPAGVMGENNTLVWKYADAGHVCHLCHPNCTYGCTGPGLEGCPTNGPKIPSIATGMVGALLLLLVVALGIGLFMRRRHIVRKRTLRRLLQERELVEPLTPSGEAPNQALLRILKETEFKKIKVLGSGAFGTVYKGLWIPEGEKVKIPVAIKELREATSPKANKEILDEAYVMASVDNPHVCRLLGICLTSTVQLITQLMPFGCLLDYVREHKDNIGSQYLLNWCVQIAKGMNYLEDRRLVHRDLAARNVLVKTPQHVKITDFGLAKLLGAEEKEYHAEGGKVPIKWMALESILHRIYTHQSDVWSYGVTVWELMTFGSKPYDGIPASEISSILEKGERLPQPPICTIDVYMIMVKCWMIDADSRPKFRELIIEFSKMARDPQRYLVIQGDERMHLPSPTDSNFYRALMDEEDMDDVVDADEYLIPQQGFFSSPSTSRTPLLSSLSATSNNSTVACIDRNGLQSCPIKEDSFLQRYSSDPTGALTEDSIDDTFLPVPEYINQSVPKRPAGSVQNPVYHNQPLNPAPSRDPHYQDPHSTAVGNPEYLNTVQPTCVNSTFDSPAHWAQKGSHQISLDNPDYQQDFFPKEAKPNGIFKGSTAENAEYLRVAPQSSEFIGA

[2] = cellular ErbB2 YVMA phosphorylation
[3] = cellular EGFR WT phosphorylation, EGF-stimulated
[4] = EGF-stimulated EGFR WT phosphorylation

ErbB2 WT, sequence (P04626 23-1255): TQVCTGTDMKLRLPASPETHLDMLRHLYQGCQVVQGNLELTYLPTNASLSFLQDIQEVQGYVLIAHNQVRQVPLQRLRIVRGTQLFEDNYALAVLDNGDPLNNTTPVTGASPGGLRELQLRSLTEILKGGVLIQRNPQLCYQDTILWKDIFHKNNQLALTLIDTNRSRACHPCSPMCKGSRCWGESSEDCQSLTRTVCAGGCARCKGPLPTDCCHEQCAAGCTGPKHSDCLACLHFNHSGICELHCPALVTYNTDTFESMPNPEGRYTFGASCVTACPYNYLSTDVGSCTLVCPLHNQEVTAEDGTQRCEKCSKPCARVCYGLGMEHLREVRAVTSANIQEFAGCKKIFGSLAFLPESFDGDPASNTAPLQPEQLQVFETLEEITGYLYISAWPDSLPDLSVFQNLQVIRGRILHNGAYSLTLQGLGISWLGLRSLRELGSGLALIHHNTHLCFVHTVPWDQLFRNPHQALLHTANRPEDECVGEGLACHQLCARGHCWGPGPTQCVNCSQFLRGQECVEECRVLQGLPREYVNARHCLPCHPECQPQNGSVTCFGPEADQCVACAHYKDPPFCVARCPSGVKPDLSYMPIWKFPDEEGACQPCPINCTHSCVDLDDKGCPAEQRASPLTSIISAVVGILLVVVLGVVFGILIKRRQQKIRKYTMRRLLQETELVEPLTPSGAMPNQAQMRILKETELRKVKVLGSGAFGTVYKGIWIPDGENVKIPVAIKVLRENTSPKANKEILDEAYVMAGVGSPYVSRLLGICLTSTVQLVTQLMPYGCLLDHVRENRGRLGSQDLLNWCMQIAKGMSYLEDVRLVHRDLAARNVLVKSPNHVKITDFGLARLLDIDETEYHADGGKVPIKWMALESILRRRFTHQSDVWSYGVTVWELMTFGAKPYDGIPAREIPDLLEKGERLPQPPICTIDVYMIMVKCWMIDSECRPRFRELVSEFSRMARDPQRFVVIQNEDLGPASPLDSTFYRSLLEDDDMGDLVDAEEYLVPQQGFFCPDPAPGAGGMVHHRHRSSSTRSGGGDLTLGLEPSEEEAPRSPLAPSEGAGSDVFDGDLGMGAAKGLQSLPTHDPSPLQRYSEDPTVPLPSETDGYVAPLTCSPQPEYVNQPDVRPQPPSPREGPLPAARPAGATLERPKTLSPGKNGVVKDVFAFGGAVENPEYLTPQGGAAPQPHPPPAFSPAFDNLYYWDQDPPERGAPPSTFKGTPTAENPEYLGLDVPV
MDR1 (P-gp), sequence (P08183 whole entry): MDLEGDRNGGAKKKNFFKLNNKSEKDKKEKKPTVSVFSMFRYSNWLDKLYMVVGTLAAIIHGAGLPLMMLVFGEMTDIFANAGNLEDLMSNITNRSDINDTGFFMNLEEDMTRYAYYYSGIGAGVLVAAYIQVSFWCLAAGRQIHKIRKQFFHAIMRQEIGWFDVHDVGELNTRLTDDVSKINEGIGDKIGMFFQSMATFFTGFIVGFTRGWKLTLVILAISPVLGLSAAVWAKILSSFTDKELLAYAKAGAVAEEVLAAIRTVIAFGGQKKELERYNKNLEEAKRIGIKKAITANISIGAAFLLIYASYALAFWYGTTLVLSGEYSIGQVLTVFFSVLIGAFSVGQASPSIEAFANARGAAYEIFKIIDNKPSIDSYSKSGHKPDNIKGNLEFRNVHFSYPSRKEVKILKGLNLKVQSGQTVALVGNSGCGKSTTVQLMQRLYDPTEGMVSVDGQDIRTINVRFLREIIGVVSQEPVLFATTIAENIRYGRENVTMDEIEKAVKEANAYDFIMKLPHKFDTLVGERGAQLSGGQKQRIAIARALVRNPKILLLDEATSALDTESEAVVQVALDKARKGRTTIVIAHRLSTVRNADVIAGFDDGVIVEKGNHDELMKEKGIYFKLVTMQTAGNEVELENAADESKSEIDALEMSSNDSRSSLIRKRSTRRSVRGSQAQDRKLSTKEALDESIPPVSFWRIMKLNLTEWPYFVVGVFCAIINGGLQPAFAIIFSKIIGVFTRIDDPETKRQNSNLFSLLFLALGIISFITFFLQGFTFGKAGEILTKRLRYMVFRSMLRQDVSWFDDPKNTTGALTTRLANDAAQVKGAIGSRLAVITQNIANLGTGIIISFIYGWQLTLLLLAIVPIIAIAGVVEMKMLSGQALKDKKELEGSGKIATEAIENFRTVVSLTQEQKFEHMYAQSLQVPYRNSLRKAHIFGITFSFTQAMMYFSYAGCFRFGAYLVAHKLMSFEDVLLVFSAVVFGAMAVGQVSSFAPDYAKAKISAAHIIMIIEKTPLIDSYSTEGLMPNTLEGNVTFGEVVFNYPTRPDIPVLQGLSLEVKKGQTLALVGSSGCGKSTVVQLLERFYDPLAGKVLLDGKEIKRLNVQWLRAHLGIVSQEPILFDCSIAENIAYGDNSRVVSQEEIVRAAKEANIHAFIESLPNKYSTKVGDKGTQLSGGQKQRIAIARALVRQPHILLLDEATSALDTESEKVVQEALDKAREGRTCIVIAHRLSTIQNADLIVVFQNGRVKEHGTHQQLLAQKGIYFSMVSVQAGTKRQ

| SMILES | efflux ratio at 2 h, 1 µM (MDR1 (P-gp)) | IC50 (EGFR; EGFR enzyme assay) | IC50 (ErbB2 WT; ErbB2 WT enzyme assay) | efflux ratio at 2 h, 1 µM (BCRP) | IC50 [1, 2] | IC50 (EGFR wild type (EGFR WT); [3]) | IC50 (EGFR; EGFR enzyme) | IC50 (ErbB2 WT; ErbB2 WT enzyme) | IC50 ([1]; ErbB2 YVMA phosphorylation) | IC50 (EGFR wild type (EGFR WT); [4]) |
| --- | --- | --- | --- | --- | --- | --- | --- | --- | --- | --- |
| C=CC(=O)N1CC2CC(C1)N2c1ccc2ncnc(Nc3ccc(Oc4cnc5c(c4)ncn5C)c(C)c3F)c2n1 [Example 435] | 1.5 | 587 nM | 314 nM | 2 | 16 nM | 1140 nM | – | – | – | – |
| C=CC(=O)N1CCC(Sc2ccc3ncnc(Nc4ccc(Oc5ccc6c(c5)ncn6C)c(C)c4F)c3n2)CC1 [Example 28, 1-(4-((4-((2-fluoro-3-methyl-4-((1-methyl-1H-benzo[d]imidazol-5-yl)oxy)phenyl)amino)pyrido[3,2-d]pyrimidin-6-yl)thio)piperidin-1-yl)prop-2-en-1-one] | 2 | – | – | 5.2 | – | – | ≥ 10000 nM | 275 nM | 26.4 nM | ≥ 5000 nM |
| C=CC(=O)N1C[C@@H]2C[C@H]1CN2c1ccc2ncnc(Nc3ccc(Oc4ccc5c(c4)ncn5C)c(C)c3F)c2n1 [Example 84, 1-((1S,4S)-5-(4-((2-fluoro-3-methyl-4-((1-methyl-1H-benzo[d]imidazol-5-yl)oxy)phenyl)amino)pyrido[3,2-d]pyrimidin-6-yl)-2,5-diazabicyclo[2.2.1]heptan-2-yl)prop-2-en-1-one] | 1.9 | – | – | 3.8 | – | – | 221 nM | 41 nM | 7.7 nM | 254 nM |
| C=CC(=O)N1CCC(c2nc3c(Nc4ccc(Oc5ccc6c(c5)ncn6C)c(C)c4)ncnc3cc2OC)CC1 [Example 42, 1-(4-(7-methoxy-4-((3-methyl-4-((1-methyl-1H-benzo[d]imidazol-5-yl)oxy)phenyl)amino)pyrido[3,2-d]pyrimidin-6-yl)piperidin-1-yl)prop-2-en-1-one] | 2.5 | – | – | 2.9 | – | – | 778 nM | 14.7 nM | 17 nM | ≥ 5000 nM |
| C=CC(=O)N1CCC(c2ccc3ncnc(Nc4ccc(Oc5ccc6c(c5)ncn6C)c(C)c4F)c3n2)CC1(C)C (stereo not drawn) [Example 127, 1-(4-(4-((2-fluoro-3-methyl-4-((1-methyl-1H-benzo[d]imidazol-5-yl)oxy)phenyl)amino)pyrido[3,2-d]pyrimidin-6-yl)-2,2-dimethylpiperidin-1-yl)prop-2-en-1-one] | 1.2 | – | – | 1.6 | – | – | ≥ 10000 nM | 271 nM | 32.7 nM | ≥ 5000 nM |
| C=CC(=O)N1C[C@H]2C[C@H](c3ccc4ncnc(Nc5ccc(Oc6ccc7c(c6)ncn7C)c(C)c5F)c4n3)C[C@H]2C1 [Example 138, 1-((3aR,5s,6aS)-5-(4-((2-fluoro-3-methyl-4-((1-methyl-1H-benzo[d]imidazol-5-yl)oxy)phenyl)amino)pyrido[3,2-d]pyrimidin-6-yl)hexahydrocyclopenta[c]pyrrol-2(1H)-yl)prop-2-en-1-one] | 6.8 | – | – | 1.8 | – | – | 4170 nM | 22.1 nM | 25.1 nM | ≥ 5000 nM |
| C=CC(=O)N1[C@@H]2CC[C@H]1[C@H](c1ccc3ncnc(Nc4ccc(Oc5ccn6ncnc6c5)c(C)c4F)c3n1)C2 (single isomer, unassigned) [Example 228] | 0.8 | – | – | 3.3 | – | – | 4550 nM | 130 nM | 33.6 nM | ≥ 5000 nM |
| C=CC(=O)N1C[C@H]2CC[C@@H]1CN2c1ccc2ncnc(Nc3ccc(Oc4ccn5ncnc5c4)c(C)c3F)c2n1 [Example 175, 1-((1R,4R)-5-(4-((4-([1,2,4]triazolo[1,5-a]pyridin-7-yloxy)-2-fluoro-3-methylphenyl)amino)pyrido[3,2-d]pyrimidin-6-yl)-2,5-diazabicyclo[2.2.2]octan-2-yl)prop-2-en-1-one] | 3.3 | – | – | 4.8 | – | – | 5350 nM | 172 nM | 22.2 nM | 2410 nM |
| C=CC(=O)N1CC(c2ccc3ncnc(Nc4ccc(Oc5ccc6c(c5)ncn6C)c(C)c4F)c3n2)CC1C (stereo not drawn) [Example 124, 1-(4-(4-((2-fluoro-3-methyl-4-((1-methyl-1H-benzo[d]imidazol-5-yl)oxy)phenyl)amino)pyrido[3,2-d]pyrimidin-6-yl)-2-methylpyrrolidin-1-yl)prop-2-en-1-one] | 1.6 | – | – | 5.2 | – | – | 3900 nM | 29.9 nM | 11.4 nM | 1940 nM |
| C=CC(=O)N1[C@@H]2CC[C@H]1[C@H](c1ccc3ncnc(Nc4ccc(Oc5ccc6c(c5)ncn6C)c(C)c4F)c3n1)C2 [Example 394] | 2.6 | 252 nM | 11.4 nM | 1.8 | 10.7 nM | ≥ 5000 nM | – | – | – | – |
| C=CC(=O)N1CCCC(c2ccc3ncnc(Nc4ccc(Oc5ccc6c(c5)ncn6C)c(C)c4)c3n2)CC1 (stereo not drawn) [Example 121, 1-(4-(4-((3-methyl-4-((1-methyl-1H-benzo[d]imidazol-5-yl)oxy)phenyl)amino)pyrido[3,2-d]pyrimidin-6-yl)azepan-1-yl)prop-2-en-1-one] | 1.9 | – | – | 4 | – | – | 5570 nM | 30.8 nM | 9.1 nM | 4580 nM |
| C=CC(=O)N1CCC[C@@H](c2ccc3ncnc(Nc4ccc(Oc5ccc6c(c5)ncn6C)c(C)c4F)c3n2)CC1 (racemic) [Example 147, rac-(R)-1-(4-(4-((2-fluoro-3-methy-4-((1-methyl-1H-benzo[d]imidazol-5-yl)oxy)phenyl)amino)pyrido[3,2-d]pyrimidin-6-yl)azepan-1-yl)prop-2-en-1-one] | 2.9 | – | – | 2.3 | – | – | 782 nM | 18.6 nM | 23 nM | 2590 nM |
| C=CC(=O)N1C[C@H](c2ccc3ncnc(Nc4ccc(Oc5ccc6c(c5)ncn6C)c(C)c4F)c3n2)CCC1(C)C (racemic) [Example 36, 1-(5-(4-((2-fluoro-3-methyl-4-((1-methyl-1H-benzo[d]imidazol-5-yl)oxy)phenyl)amino)pyrido[3,2-d]pyrimidin-6-yl)-2,2-dimethylpiperidin-1-yl)prop-2-en-1-one] | 0.8 | – | – | 4.2 | – | – | ≥ 10000 nM | 105 nM | 18.9 nM | 1700 nM |

Further lines, results first:

| efflux ratio at 2 h, 1 µM (MDR1 (P-gp)) | IC50 (EGFR; EGFR enzyme assay) | IC50 (ErbB2 WT; ErbB2 WT enzyme assay) | efflux ratio at 2 h, 1 µM (BCRP) | IC50 [1, 2] | IC50 (EGFR wild type (EGFR WT); [3]) | IC50 (EGFR; EGFR enzyme) | IC50 (ErbB2 WT; ErbB2 WT enzyme) | IC50 ([1]; ErbB2 YVMA phosphorylation) | IC50 (EGFR wild type (EGFR WT); [4]) | SMILES |
| --- | --- | --- | --- | --- | --- | --- | --- | --- | --- | --- |
| 1 | 2220 nM | 78.6 nM | 2 | 24.6 nM | ≥ 5000 nM | – | – | – | – | C=CC(=O)N1CCCC(c2ccc3ncnc(Nc4ccc(Oc5cnc6c(c5)ncn6C)c(C)c4F)c3n2)CC1 (stereo not drawn) [Example 413] |
| 1.3 | 5340 nM | 92.6 nM | 2.4 | 23.2 nM | ≥ 5000 nM | – | – | – | – | C=CC(=O)N1CCN(c2ccc3ncnc(Nc4cc(C)c(Oc5ccc6c(c5)ncn6C)cc4F)c3n2)C[C@H]1C(C)C [Example 254] |
| 1.2 | – | – | 4.2 | – | – | ≥ 10000 nM | 83.1 nM | 177 nM | ≥ 5000 nM | Cc1c(Oc2ccn3ncnc3c2)ccc(Nc2ncnc3ccc(N4CCN(C#N)C(C)(C)C4)nc23)c1F [Example 245, 4-(4-((4-([1,2,4]triazolo[1,5-a]pyridin-7-yloxy)-2-fluoro-3-methylphenyl)amino)pyrido[3,2-d]pyrimidin-6-yl)-2,2-dimethylpiperazine-1-carbonitrile] |
| 1.2 | – | – | 4.5 | – | – | 2420 nM | 58.7 nM | 24 nM | 2560 nM | C=CC(=O)N1CC[C@H]2C[C@H](c3ccc4ncnc(Nc5cc(C)c(Oc6ccn7ncnc7c6)cc5F)c4n3)C[C@H]21 (racemic) [Example 205, rac-1-((3aR,5S,6aR)-5-(4-((4-([1,2,4]triazolo[1,5-a]pyridin-7-yloxy)-2-fluoro-5-methylphenyl)amino)pyrido[3,2-d]pyrimidin-6-yl)hexahydrocyclopenta[b]pyrrol-1(2H)-yl)prop-2-en-1-one] |
| 1.5 | ≥ 10000 nM | 158 nM | 7.2 | 28.5 nM | ≥ 5000 nM | – | – | – | – | C=CC(=O)N1CCN(c2ccc3ncnc(Nc4cc(C)c(Oc5cnc6c(c5)ncn6C)cc4F)c3n2)C[C@@H]1C1CC1 [Example 355] |
| 2.9 | 908 nM | 33.6 nM | 2.3 | 8 nM | 760 nM | – | – | – | – | C=CC(=O)N1CCC12CN(c1ccc3ncnc(Nc4cc(C)c(Oc5ccn6ncnc6c5)cc4F)c3n1)C2 [Example 361] |
| 0.9 | 2710 nM | 79.5 nM | 2 | 36.6 nM | ≥ 5000 nM | – | – | – | – | C=CC(=O)N1C[C@H]2C[C@@H]1[C@H](c1ccc3ncnc(Nc4cc(C)c(Oc5cnc6c(c5)ncn6C)cc4F)c3n1)C2 [Example 416] |
